The record followed here is ChEMBL document CHEMBL1681636, “Exploring subtype selectivity and metabolic stability of a novel series of ligands for the benzodiazepine binding site of the GABAA receptor” (Bioorg Med Chem Lett, 2011).

Active and inactive are the calls of the source. No cut-off for these calls is given here.

Data set [1] addresses T1, Gamma-aminobutyric acid receptor subunit alpha-2 (Homo sapiens) (UniProt P47869).
T1 sequence (whole entry): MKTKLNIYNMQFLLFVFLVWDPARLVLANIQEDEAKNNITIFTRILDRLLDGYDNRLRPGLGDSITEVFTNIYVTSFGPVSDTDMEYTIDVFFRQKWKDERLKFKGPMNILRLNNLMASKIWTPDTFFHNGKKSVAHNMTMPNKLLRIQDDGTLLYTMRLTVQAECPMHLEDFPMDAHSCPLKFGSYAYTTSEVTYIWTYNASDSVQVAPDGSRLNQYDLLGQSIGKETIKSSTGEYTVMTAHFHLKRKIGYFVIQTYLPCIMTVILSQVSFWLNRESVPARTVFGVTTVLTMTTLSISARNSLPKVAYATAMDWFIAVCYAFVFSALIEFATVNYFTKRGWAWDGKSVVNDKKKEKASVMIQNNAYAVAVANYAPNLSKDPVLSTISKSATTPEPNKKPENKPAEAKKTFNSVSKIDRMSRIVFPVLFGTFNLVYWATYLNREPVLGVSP
As to the kind of experiment: Agonist activity at recombinant GABAA receptor subunit alpha-2 expressed in CHO cells at 3 uM by sensitive fluorometric read-out assay relative to midazolam. Type of data set: functional, cell-based.

Data set [2] has as its target T2, Gamma-aminobutyric acid receptor subunit alpha-1 (Homo sapiens) (UniProt P14867).
T2 sequence (whole entry): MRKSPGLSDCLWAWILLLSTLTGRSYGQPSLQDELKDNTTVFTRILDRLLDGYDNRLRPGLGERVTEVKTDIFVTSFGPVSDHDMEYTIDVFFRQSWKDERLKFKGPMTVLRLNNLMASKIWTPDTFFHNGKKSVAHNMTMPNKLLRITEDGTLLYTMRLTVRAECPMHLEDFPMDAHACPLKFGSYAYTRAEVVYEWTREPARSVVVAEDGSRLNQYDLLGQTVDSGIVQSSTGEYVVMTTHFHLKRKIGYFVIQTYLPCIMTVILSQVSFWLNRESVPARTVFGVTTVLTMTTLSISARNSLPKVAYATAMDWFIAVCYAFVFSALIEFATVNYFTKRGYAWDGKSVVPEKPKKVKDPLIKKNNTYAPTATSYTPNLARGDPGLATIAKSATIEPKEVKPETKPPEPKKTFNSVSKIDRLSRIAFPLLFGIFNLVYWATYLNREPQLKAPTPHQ
The experiment in a line: Agonist activity at recombinant GABAA receptor subunit alpha-1 expressed in CHO cells at 3 uM by sensitive fluorometric read-out assay relative to midazolam. Type of data set: functional, cell-based.

Data set [3] addresses T3, Gamma-aminobutyric acid receptor subunit alpha-2 (Homo sapiens, UniProt P47869).
T3 sequence (P47869 whole entry): T1 sequence (whole entry)
As to the kind of experiment: Displacement of [3H]flumazenil from GABAA receptor subunit alpha-2 expressed in CHO cells. The data set is classed as cell-based.

In data set [4] the target is T4, Gamma-aminobutyric acid receptor subunit alpha-1 (Homo sapiens, UniProt P14867).
T4 sequence (P14867 whole entry): T2 sequence (whole entry)
As to the kind of experiment: Displacement of [3H]flumazenil from GABAA receptor subunit alpha-1 expressed in CHO cells. Type of data set: cell-based. In general terms: Displacement assays read how much labelled ligand stays bound in the presence of the test substance.

The nature of data set [5]: Intrinsic clearance in rat liver microsomes at 5 uM after 60 mins. The data set is classed as ADME, Microsome. On the technique in general: Liver microsomes are a subcellular fraction often used to study metabolism.
Data set [6] has as its target T2, Gamma-aminobutyric acid receptor subunit alpha-1 (Homo sapiens). As to the kind of experiment: Agonist activity at recombinant GABAA receptor subunit alpha-1 expressed in CHO cells at 1 uM by sensitive fluorometric read-out assay relative to midazolam. Type of data set: functional, cell-based.
The target of data set [7] is T1, Gamma-aminobutyric acid receptor subunit alpha-2 (Homo sapiens). The experiment in a line: Agonist activity at recombinant GABAA receptor subunit alpha-2 expressed in CHO cells at 1 uM by sensitive fluorometric read-out assay relative to midazolam. Type of data set: functional, cell-based.

Turning to `FC(F)(F)c1ccccc1COc1c2cnc3c(c2nn1-c1ccc(Cl)cc1)CCCC3`, the figures for the Efficacy in data set [1] and in data set [2] were 94% and 84%, respectively.

Usually IC50 stands for the midpoint of a concentration-inhibition curve. Read a high IC50 as a need for much substance. As for `CC1(C)CCc2ncc3c(OCc4ccccc4Cl)n(-c4ccc(Cl)cc4)nc3c2C1`, the IC50 came to 213 nM in data set [3] and 67 nM in data set [4]. Further, the figures for the Efficacy in data set [1] and in data set [2] were 23% and 4%, respectively.

One may read the microsomal CLint as a measure of how fast metabolising enzymes remove a compound, apart from limits set by blood flow. With `Clc1ccc(-n2nc3c4c(ncc3c2OCc2ccccc2Cl)CCCC4)cc1`, the IC50 in data set [3] worked out at 271 nM; in data set [4], 46 nM. The Efficacy in data set [1] turned out to be 50%; in data set [2], 25%. In addition, the microsomal CLint at 5 µM in data set [5] stood at 128 µL/min/mg.

Take `Clc1ccc(-n2nc3c(cnc4ccccc43)c2OCC2CC2)cc1`: the 50% inhibitory concentration (IC50) in data set [3] is 472 nM; in data set [4], 74 nM. Besides, the Efficacy is 36% in data set [1] and 37% in data set [2].

Regarding `Clc1ccc(-n2nc3c4c(ncc3c2OCc2ccccc2Cl)CCCCC4)cc1`, the IC50 in data set [3] stood at 605 nM; in data set [4], 242 nM. Further, the Efficacy turned out to be 96% in data set [1] and 114% in data set [2].

Consider `Fc1ccccc1COc1c2cnc3c(c2nn1-c1ccc(Cl)cc1)CCCC3`, for which the IC50 in data set [3] was found to be 154 nM; in data set [4], 64 nM. Further, the figures for the Efficacy in data set [1] and in data set [2] were 83% and 31%, respectively.

In the case of `Clc1ccc(-n2nc3c4c(ncc3c2OCc2cccc(Cl)c2)CCCC4)cc1`, the Efficacy stood at 50% in data set [1] and 38% in data set [2].

Turning to `Clc1ccc(-n2nc3c4c(ncc3c2Oc2ccccc2Cl)CCCC4)cc1`, the IC50 in data set [3] and in data set [4] was more than 3000 nM in each case. The Efficacy result in data set [1] and in data set [2] was “inactive” in each case.

For `O=C1C2C=Nc3ccccc3C2=NN1c1ccc(Cl)cc1` (centres undefined) [CGS-9896], the Efficacy was 38% in data set [6] and 47% in data set [7]. In addition, the IC50 in data set [3] was found to be 4 nM; in data set [4], 1 nM.

On to `Clc1ccccc1COc1c2cnc3ccccc3c2nn1-c1ccc2c(c1)OCO2`, for which the half-inhibitory concentration (IC50) was 155 nM in data set [3] and 50 nM in data set [4]. Moreover, the Efficacy in data set [1] was 19%; in data set [2] it was -15%.

As to `Clc1ccc(COc2c3cnc4c(c3nn2-c2ccc(Cl)cc2)CCCC4)cc1`, the values for the IC50 in data set [3] and in data set [4] were 177 nM and 157 nM, respectively. In addition, the values for the Efficacy in data set [1] and in data set [2] were 42% and 20%, respectively.

With `Clc1ccc(-n2nc3c(cnc4ccccc43)c2OCc2ccccc2Cl)cc1`, the IC50 in data set [3] worked out at 265 nM; in data set [4] it was 64 nM. The Efficacy came out at 22% in data set [1] and 13% in data set [2].

As to `Fc1ccc(COc2c3cnc4c(c3nn2-c2ccc(Cl)cc2)CCCC4)cc1`, the IC50 in data set [3] was found to be 57 nM; in data set [4], 50 nM. For the same compound, the Efficacy in data set [1] worked out at 41%; in data set [2], 24%.

With `Clc1ccc(-n2nc3c(cnc4ccc(-n5ccnc5)cc43)c2OCC2CC2)cc1`, the values for the IC50 in data set [3] and in data set [4] were 2110 nM and 134 nM, respectively. The Efficacy is 35% in data set [1] and 80% in data set [2].

For the compound `Clc1ccc(-n2nc3c4c(ncc3c2OCC2CC2)CCCC4)cc1`, the IC50 in data set [3] amounted to 185 nM; in data set [4], 94 nM. Further, the Efficacy came out at 64% in data set [1] and 18% in data set [2].

With `Fc1ccccc1-n1nc2c(cnc3ccccc32)c1OCc1ccccc1Cl`, the 50% inhibitory concentration (IC50) is 2 nM in data set [3] and 1 nM in data set [4]. Moreover, the Efficacy in data set [1] is 17%; in data set [2], -8%.

The compound `Clc1ccc(-n2nc3c4c(ncc3c2OCc2ccccc2Cl)CCOC4)cc1` gave an IC50 in data set [3] of 461 nM. Besides, the Efficacy in data set [1] stood at 32%; in data set [2], 4%.
